Experimental data as given in patent US20230157952A1, “METHOD FOR IMPROVING THE STABILITY OF A PHARMACEUTICAL COMPOSITION COMPRISING A HIGH PENETRATION DRUG, AND THE PHARMACEUTICAL COMPOSITION OBTAINED THEREFROM” (Techfields Inc., priority 2020, published 2023).
One block for each compound: values may come before it. Non-standard residues stand in square brackets, D forms with d. *: point of attachment. Arg(NO2) = N=C(NCCC[C@H](N)C(=O)O)N[N+](=O)[O-]; OiPr = CC(C)O*

Legend:
[1] = Effect of pH value on the stability of the solution (purity); type: physicochemical; details: for Purity(%) from day 0-28: 25° C.
[2] = Effect of temperature (and pH) on the stability of the solution (purity); type: physicochemical
[3] = Stability of the pure HPDs (dry solid) at 25° C./RH 60%; type: physicochemical; details: for Purity: pure HPD, 25° C./RH 60%, listed as A-1-1
[4] = Effect of concentration on the stability of the solution (purity over time); details: in water at 25° C.
[5] = 5% solution with 1 equivalent sodium acetate in 25% ethanol, pH 4.49-4.51
[6] = pure HPD at 25° C./RH 60%, in % (unit assumed)

Purity(%) from day 0-28 ([1]; day 28, pH 1.0, 7% solution in water): 68.9 ± 0.3%
Purity(%) from day 0-28 ([1]; day 28, pH 2.0, 7% solution in water): 80.9 ± 0.4%
Purity(%) from day 0-28 ([1]; day 28, pH 3.0, 7% solution in water): 90.3 ± 0.3%
Purity(%) from day 0-28 ([1]; day 28, pH 3.7, 7% solution in water): 97.2 ± 0.2%
Purity(%) from day 0-28 ([1]; day 28, pH 5.0, 7% solution in water): 96.3 ± 0.2%
Purity(%) from day 0-28 ([1]; day 28, pH 6.0, 7% solution in water): 89.9 ± 0.3%
Purity(%) from day 0-28 ([1]; day 28, pH 7.0, 7% solution in water): 65.8 ± 0.3%
Purity(%) from day 0-28 ([1]; day 28, pH 8.0, 7% solution in water): 45.8 ± 0.4%
Stability of the solution at a temperature higher than 40° C. and a pH lower than 3 or greater than 6 ([2]; 7% solution in water): not stable
Purity ([3]; 3 month): 98.6 ± 0.1
Purity ([3]; 6 month): 98.8 ± 0.1
Purity ([3]; Day 0): 98.8 ± 0.2
Purity at Day 3 ([4]; 0.01 wt %): 79.6%
Purity at Day 7 ([4]; 0.01 wt %): 73.4%
Purity at Day 14 ([4]; 0.01 wt %): 68.7%
Purity at Day 21 ([4]; 0.01 wt %): 64.5%
Purity at Day 28 ([4]; 0.01 wt %): 61.4%
Purity at hr 24 ([4]; 0.01 wt %): 91.7%
Purity at Day 7 ([4]; 0.1 wt %): 97.2%
Purity at Day 14 ([4]; 0.1 wt %): 96.1%
Purity at Day 21 ([4]; 0.1 wt %): 95.4%
Purity at Day 28 ([4]; 0.1 wt %): 94.1%
Purity at Day 14 ([4]; 1 wt %): 97.4%
Purity at Day 21 ([4]; 1 wt %): 96.9%
Purity at Day 28 ([4]; 1 wt %): 96.4%
Purity at Day 21 ([4]; 3 wt %): 97.6%
Purity at Day 28 ([4]; 3 wt %): 97.1%
Purity at Day 28 ([4]; 5 wt %): 97.5%
Purity at Day 21 ([4]; 8 wt %): 97.5%
Purity at Day 28 ([4]; 8 wt %): 97.6%
Purity at Day 21 ([4]; 10 wt %): 97.4%
Purity at Day 28 ([4]; 10 wt %): 97.6%
Purity at Day 21 ([4]; 15 wt %): 97.5%
Purity at Day 28 ([4]; 15 wt %): 97.6%
Purity at Day 21 ([4]; 20 wt %): 97.4%
Purity at Day 28 ([4]; 20 wt %): 97.6%
Stability when the concentration is 0.1% or lower [4]: not stable
Compound: CCN(CC)CCOC(=O)[C@H](C)c1ccc2cc(OC)ccc2c1.Cl (racemic) [2-(diethylamino)ethyl (R,S)-2-(6-methoxy-2-naphthyl)propionate•HCl]

Compound: H-Val-Pro-Gly-Pro-Arg(NO2)—OCH(CH3)2•HCl (H-VPGP[Arg(NO2)]-OiPr; also: HCl salt)
pH at which the solution is stable ([1]; 5% solution in 25% ethanol at 25° C.): 3-6
Time the solution can be stored at room temperature ([1]; 5% solution in 25% ethanol, pH 3-6): about 1 year
Purity (%) at day 30 (60° C.) [2, 5]: 32.4 ± 0.4%
Purity (%) at day 90 (60° C.) [2, 5]: 0%
Purity (%) at day 180 (60° C.) [2, 5]: 0%
Purity (%) at day 360 (60° C.) [2, 5]: 0%
Purity(%) at day 0 [2, 5]: 98.7 ± 0.2%
Purity(%) at day 30 (5° C.) [2, 5]: 98.5 ± 0.3%
Purity(%) at day 30 (25° C.) [2, 5]: 97.7 ± 0.2%
Purity(%) at day 30 (40° C.) [2, 5]: 71.6 ± 0.2%
Purity(%) at day 90 (5° C.) [2, 5]: 98.4 ± 0.3%
Purity(%) at day 90 (25° C.) [2, 5]: 97.0 ± 0.3%
Purity(%) at day 90 (40° C.) [2, 5]: 32.7 ± 0.3%
Purity(%) at day 180 (5° C.) [2, 5]: 97.8 ± 0.3%
Purity(%) at day 180 (25° C.) [2, 5]: 95.1 ± 0.3%
Purity(%) at day 180 (40° C.) [2, 5]: 12.2 ± 0.3%
Purity(%) at day 360 (5° C.) [2, 5]: 97.3 ± 0.3%
Purity(%) at day 360 (25° C.) [2, 5]: 92.2 ± 0.2%
Purity(%) at day 360 (40° C.) [2, 5]: 0%
Purity at 3 month [3, 6]: 98.8 ± 0.2
Purity at 6 month [3, 6]: 98.6 ± 0.2
Purity at 9 month [3, 6]: 98.5 ± 0.2
Purity at 12 month [3, 6]: 98.4 ± 0.3
Purity at 18 month [3, 6]: 98.2 ± 0.3
Purity at 24 month [3, 6]: 98.2 ± 0.2
Purity at Day 0 [3, 6]: 98.7 ± 0.2
Stability of the pure powder ([3]; room temperature (25° C./RH 60%)): very stable
